In the case of `CCOC(=O)CCCCCOC(=O)c1c(I)c(NC(C)=O)c(I)c(NC(C)=O)c1I` [PH-50, 6-ethoxy-6-oxohexy-3,5-bis(acetylamino)-2,4,6-triiodobenzoate], the “half-life in the vascular structures” value (at functionally active concentrations, until metabolized by the liver) is reported as 30 to 60 min and the route of excretion (in vivo) is reported as “excreted from the body via the hepatic system rather than the renal system”.

Reference: US20040076586A1, “Compositions and methods for delivering pharmaceutically active agents using nanoparticulates” (priority 2002, published 2004)
